From the supplement of paper PMC10307832

Key:
Assay in all cases: relative viability (nuclei count vs DMSO), 5 days (fraction); higher = more cells survive
[1] = compound: C[C@H]([C@@H](C(=O)N)NC(=O)[C@@H]1CSSC[C@@H](C(=O)N[C@H](C(=O)N[C@@H](C(=O)N[C@H](C(=O)N1)CCCCN)CC2=CNC3=CC=CC=C32)CC4=CC=C(C=C4)O)NC(=O)[C@@H](CC5=CC=CC=C5)N)O [CAP-232] + Nc1ncn([C@H]2C[C@H](O)[C@@H](CO)O2)c(=O)n1 [Decitabine] (partner 2 µM)
How it was run: (§1)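 Cells from lung cancer lines were seeded into 1536-well plates and, one day later, dosed by pin tool. Treatments were either a single drug or a fixed dose of an anchor drug with five library-drug doses (not always all listed) in √10 steps. After 5 days, nuclei were stained in a one-step fixation (final 0.05% Triton X-100, 1% formaldehyde, 1 ug/ml Hoechst) and counted on 4× images, and relative viability is the treated-to-vehicle nuclei ratio, as the median of duplicate plates.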

[2] = compound: C[C@H]([C@@H](C(=O)N)NC(=O)[C@@H]1CSSC[C@@H](C(=O)N[C@H](C(=O)N[C@@H](C(=O)N[C@H](C(=O)N1)CCCCN)CC2=CNC3=CC=CC=C32)CC4=CC=C(C=C4)O)NC(=O)[C@@H](CC5=CC=CC=C5)N)O [CAP-232] + CC(C)C[C@H](NC(=O)[C@H](Cc1ccccc1)NC(=O)c1cnccn1)B(O)O [Bortezomib] (partner 0.002 µM)
How it was run: as §1

[3] = compound: C[C@H]([C@@H](C(=O)N)NC(=O)[C@@H]1CSSC[C@@H](C(=O)N[C@H](C(=O)N[C@@H](C(=O)N[C@H](C(=O)N1)CCCCN)CC2=CNC3=CC=CC=C32)CC4=CC=C(C=C4)O)NC(=O)[C@@H](CC5=CC=CC=C5)N)O [CAP-232] + CC(=O)c1c(C)c2cnc(Nc3ccc(N4CCNCC4)cn3)nc2n(C2CCCC2)c1=O [Palbociclib] (partner 0.5 µM)
How it was run: as §1

[4] = compound: C[C@H]([C@@H](C(=O)N)NC(=O)[C@@H]1CSSC[C@@H](C(=O)N[C@H](C(=O)N[C@@H](C(=O)N[C@H](C(=O)N1)CCCCN)CC2=CNC3=CC=CC=C32)CC4=CC=C(C=C4)O)NC(=O)[C@@H](CC5=CC=CC=C5)N)O [CAP-232] + COc1cc2c(Oc3ccc(NC(=O)C4(C(=O)Nc5ccc(F)cc5)CC4)cc3F)ccnc2cc1OCCCN1CCOCC1 [Foretinib] (partner 0.25 µM)
How it was run: as §1

[5] = compound: C[C@H]([C@@H](C(=O)N)NC(=O)[C@@H]1CSSC[C@@H](C(=O)N[C@H](C(=O)N[C@@H](C(=O)N[C@H](C(=O)N1)CCCCN)CC2=CNC3=CC=CC=C32)CC4=CC=C(C=C4)O)NC(=O)[C@@H](CC5=CC=CC=C5)N)O [CAP-232] + Nc1nc2[nH]cc(CCc3ccc(C(=O)N[C@@H](CCC(=O)O)C(=O)O)cc3)c2c(=O)[nH]1 [Pemetrexed] (partner 0.2 µM)
How it was run: as §1

Cell Line	relative viability ([1]; first compound 0.4 µM)	relative viability ([1]; first compound 1.265 µM)	relative viability ([1]; first compound 4 µM)	relative viability ([1]; first compound 12.65 µM)	relative viability ([2]; first compound 0.4 µM)	relative viability ([2]; first compound 1.265 µM)	relative viability ([2]; first compound 4 µM)	relative viability ([2]; first compound 12.65 µM)	relative viability ([3]; first compound 0.4 µM)	relative viability ([3]; first compound 1.265 µM)	relative viability ([3]; first compound 4 µM)	relative viability ([3]; first compound 12.65 µM)	relative viability ([4]; first compound 0.4 µM)	relative viability ([4]; first compound 1.265 µM)	relative viability ([4]; first compound 4 µM)	relative viability ([4]; first compound 12.65 µM)	relative viability ([5]; first compound 0.4 µM)	relative viability ([5]; first compound 1.265 µM)	relative viability ([5]; first compound 4 µM)	relative viability ([5]; first compound 12.65 µM)
201T	0.842	0.844	0.817	0.849	1.17	1.04	1.05	1.1	0.357	0.354	0.317	0.376	1.17	1.14	1.03	0.864	0.341	0.332	0.356	0.303
A549	0.267	0.212	0.33	0.239	–	–	–	–	–	–	–	–	1.01	0.998	0.935	0.369	–	–	–	–
A-427	0.578	0.556	0.599	0.56	1.21	0.972	0.993	0.964	0.528	0.554	0.508	0.467	0.852	1.19	1.05	1.1	1.22	0.923	0.974	0.924
ABC-1	1.05	–	0.984	0.887	0.296	0.306	0.222	0.264	0.641	–	0.691	0.513	0.772	0.876	1.35	0.677	–	–	–	–
BEN	0.792	0.686	0.742	0.795	0.819	0.667	0.959	0.745	0.516	0.46	0.456	0.448	0.776	0.624	0.595	0.595	0.888	0.613	0.923	0.752
CAL-12T	–	–	–	–	1.21	0.939	0.91	0.477	0.422	0.552	0.376	0.179	1.06	1.06	0.927	0.85	0.929	1.26	1.16	1.1
COR-L23	0.451	0.407	0.471	0.337	0.959	1.04	1.15	0.732	0.338	0.29	0.304	0.255	1.02	0.957	1.1	0.851	0.203	0.199	0.196	0.163
COR-L 105	0.629	0.647	0.684	0.477	0.913	0.742	0.657	0.567	0.395	0.401	0.384	0.387	0.955	0.851	1.22	0.572	1.44	0.964	1.18	0.783
ChaGo-K-1	0.497	0.542	0.506	0.547	1.45	0.768	1.06	0.784	0.964	0.932	1.01	0.932	0.954	0.779	0.836	0.912	0.284	0.259	0.259	0.248
EKVX	0.993	0.367	0.256	0.323	1.15	0.931	0.925	0.917	0.387	0.339	0.262	0.262	0.77	0.571	0.768	0.768	0.392	0.375	0.413	0.33
EMC-BAC-2	0.969	0.963	0.959	0.972	1.13	1.11	1.14	1.12	0.507	0.512	0.491	0.427	1.1	0.953	1.01	0.907	0.44	0.412	0.422	0.442
EPLC-272H	0.348	0.334	0.344	0.355	0.992	0.878	0.892	0.87	0.342	0.292	0.297	0.296	0.661	0.644	0.659	0.71	–	0.411	0.316	0.178
H3255	0.744	–	0.608	0.676	0.934	0.816	0.829	0.688	0.314	0.32	0.329	0.282	0.849	0.799	0.866	0.854	0.605	0.549	0.559	0.543
HARA	0.526	0.555	0.523	0.527	1.2	1.2	1.13	1.17	0.236	0.31	0.246	0.265	0.983	0.975	0.805	0.824	0.281	0.243	0.268	0.215
HCC-15	0.686	0.62	0.638	0.176	1.16	1	1.27	0.77	0.754	0.763	0.567	0.567	1.08	1.07	1.09	0.652	0.19	0.218	0.223	0.0856
HCC-44	1.03	0.962	0.972	0.935	1	0.864	0.948	0.893	1	1.05	0.92	0.937	–	–	–	–	0.648	0.622	0.626	0.686
HCC-78	0.755	0.764	0.687	0.636	0.544	0.563	0.489	0.396	0.481	0.496	0.552	0.49	0.564	0.562	0.473	0.568	0.939	0.912	0.901	0.899

Cell Line	relative viability ([1]; first compound 0.4 µM)	relative viability ([1]; first compound 1.265 µM)	relative viability ([1]; first compound 4 µM)	relative viability ([1]; first compound 12.65 µM)	relative viability ([2]; first compound 0.4 µM)	relative viability ([2]; first compound 1.265 µM)	relative viability ([2]; first compound 4 µM)	relative viability ([2]; first compound 12.65 µM)	relative viability ([3]; first compound 0.4 µM)	relative viability ([3]; first compound 1.265 µM)	relative viability ([3]; first compound 4 µM)	relative viability ([3]; first compound 12.65 µM)	relative viability ([4]; first compound 0.4 µM)	relative viability ([4]; first compound 1.265 µM)	relative viability ([4]; first compound 4 µM)	relative viability ([4]; first compound 12.65 µM)	relative viability ([5]; first compound 0.4 µM)	relative viability ([5]; first compound 1.265 µM)	relative viability ([5]; first compound 4 µM)	relative viability ([5]; first compound 12.65 µM)
IA-LM	–	–	–	–	0.861	0.656	0.698	0.236	–	–	–	–	1.15	1.14	1.22	0.386	–	–	–	–
LK-2	0.357	0.234	0.37	0.302	–	–	–	–	0.595	0.802	0.576	0.783	1.4	1.22	1.54	1.19	0.325	0.284	0.326	0.294
NCI-H358	0.184	0.198	0.229	0.18	–	–	–	–	0.22	0.125	0.14	0.153	0.678	0.841	0.686	0.563	0.151	0.171	0.187	0.187
NCI-H522	0.677	0.623	0.572	0.658	–	–	–	–	0.982	0.929	1.05	0.848	–	–	–	–	0.921	1.08	0.888	0.974
NCI-H596	1.03	0.971	0.69	0.965	1.14	1.2	0.701	0.925	–	–	–	–	0.863	0.739	0.985	0.827	0.562	0.49	0.439	0.448
NCI-H727	0.717	0.831	1.07	0.957	–	0.754	1.11	0.601	0.528	0.65	0.558	0.701	0.933	0.92	0.845	0.824	–	–	–	–
NCI-H1395	0.777	–	0.745	0.537	–	–	–	–	0.679	–	0.665	0.578	0.971	0.997	0.854	1.11	0.971	–	0.917	0.503
NCI-H1563	–	–	–	–	0.836	0.735	0.957	0.687	–	–	–	–	0.972	0.886	0.939	0.639	0.802	0.655	0.744	0.669
NCI-H1703	–	–	–	–	0.251	0.333	0.226	0.164	–	–	–	–	0.304	0.364	0.323	0.409	–	–	–	–
NCI-H1792	0.636	0.54	0.555	0.365	1.13	1.01	1.27	0.845	0.893	0.694	0.669	0.545	–	–	–	–	1.12	0.78	0.849	0.465
NCI-H1793	0.473	0.406	0.389	0.494	–	–	–	–	0.401	0.313	0.303	0.324	0.678	0.761	0.639	0.725	1.01	0.61	0.905	0.696
NCI-H1944	0.426	0.424	0.363	0.424	–	–	–	–	0.393	0.31	0.326	0.325	0.849	0.862	0.906	0.882	0.569	0.517	0.601	0.573
NCI-H2170	0.496	0.492	0.492	0.486	–	–	–	–	0.358	0.38	0.429	0.424	1	1.04	1.02	1.05	0.247	0.261	0.267	0.244
NCI-H2228	–	–	–	–	0.9	0.977	1.21	0.74	1.06	0.803	0.971	0.632	0.826	0.938	1.09	0.485	0.447	0.364	0.335	0.358
NCI-H2342	0.714	0.81	0.736	0.666	–	–	–	–	0.45	0.509	0.497	0.487	0.944	1.03	0.995	0.995	0.798	0.745	0.779	0.835
SK-MES-1	0.452	0.344	0.384	0.274	–	–	–	–	0.324	0.292	0.278	0.258	0.935	1.04	0.95	0.771	1.04	0.95	0.961	0.608
SW 900	0.442	0.369	0.355	0.454	–	–	–	–	0.528	0.481	0.512	0.465	0.819	0.816	0.96	0.858	0.487	0.48	0.47	0.499
